Test results taken from the METLIN SMRT retention time set (Domingo-Almenara et al. 2019).

Assay: gradient 5% acetonitrile 3 min, to 50% in 2 min, to 85% in 15 min, held 3 min, 100 µL/min
Conditions: column: Zorbax Extend-C18 2.1 x 50 mm; eluents: water / acetonitrile, 0.1% formic acid
Summary of the method: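 Standards, all pure, were combined into mixtures of ~100 molecules and run at 100 μL/min on a Zorbax Extend-C18 column (2.1 × 50 mm, 1.8 μm) with water and acetonitrile, each containing 0.1% formic acid. A coupled quadrupole time-of-flight mass spectrometer operated in positive and negative ionization mode. Retention time values come from computationally picked adduct peaks, each inspected manually.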

RP-LC retention time [s]	SMILES
610	COc1ccc(C2C(C(=O)NCCN3CCOCC3)c3cc(OC)c(OC)cc3C(=O)N2C)cc1 (centres undefined)
634	CCOC(=O)c1c(-c2cccnc2)n(C)c2cc(-c3cccnc3)c(OC)cc12
704	COCC(C)NC(=O)C(=O)c1cn(CC(=O)N2CCOCC2)c2ccccc12 (centres undefined)
1020	Cc1cc(C(=O)N2CCCCC2)c2c(=O)n(Cc3ccc(Cl)cc3)c(=O)n(C)c2n1
1020	Cc1ccc(N2C(=O)C3N=NN(Cc4nc(-c5ccccc5)no4)C3C2=O)cc1C (centres undefined)
706	CCNC(=O)c1cnn(-c2cc(-c3nc(C)no3)ccn2)c1C
718	CCn1nccc1C(=O)NC1CCCCC1
579	CN(C)CCNC(=O)Cn1c(=O)n(-c2ccccc2)c2ncccc21
686	Cn1nnc2cc(CNC(=O)c3ccc(F)cc3)ccc21
1030	Cc1ccc(NC(=O)Nc2ccc3c(c2)CCN3S(=O)(=O)c2ccccc2)cc1C
711	Cc1ccc(CNS(=O)(=O)c2cc3n(c2)CCCN(C)C3=O)cc1
896	Cc1ccc(CCNC(=O)C2CCCN2S(=O)(=O)c2ccc3c(c2)C(C)(C)C(=O)N3C)cc1 (centres undefined)
631	O=C(c1ccc(Br)o1)N1CCC(n2cnnc2C2CC2)CC1
648	COC(=O)c1ccc(CSc2nc3ccccc3[nH]2)cc1
786	CCc1ccc(NC(=O)Cn2c(=O)c3cc(C)nn3c3ncccc32)cc1
719	CCn1cnc(S(=O)(=O)N2CCC(C(=O)Nc3cc(C)ccc3C)CC2)c1
567	COc1ccc(Br)c(C(=O)NCC#CCN(C(C)C)C(C)C)c1
1270	COc1cccc(-c2nc(-c3ccc(S(=O)(=O)N4CCCCC4)cc3)no2)c1
872	Cc1ccsc1CCNC(=O)C1CCN(S(=O)(=O)c2ccc3c(c2)sc(=O)n3C)CC1
964	O=C(Nc1cccc(Cl)c1F)c1cnc(-c2ccccc2)nc1-c1ccncc1
752	CCOc1c(C)cc(S(=O)(=O)NCC(C)(O)COC)cc1C (centres undefined)
887	O=C(NCCc1ccco1)c1ccc2ccnc(N3CCN(c4ccc(Cl)cc4)CC3)c2c1
766	Cc1ccn2c(Nc3ccccc3C)c(-c3c(F)cccc3Cl)nc2c1
986	CCOC(=O)c1c(S(=O)(=O)N2CCC(C(=O)Nc3cccc(Cl)c3)CC2)c(C)n(CC)c1C
733	O=C(c1ccc(Cl)c(Cl)c1)N1CCN(c2ccc(-c3ccco3)nn2)CC1
808	CCn1ccc(C(=O)N2CC(Oc3cccc(-c4nc(C)no4)c3)C2)n1

RP-LC retention time [s]	SMILES
897	CCc1noc(NC(C)=O)c1-c1ccc(C)c(S(=O)(=O)Nc2cccc(C)c2C)c1
784	CCc1nnc(-c2ccc3ccn(CC(=O)N4CCN(c5ccc(OC)cc5)CC4)c3c2)o1
798	Cc1ccccc1Nc1c(-c2ccc(N(C)C)cc2)nc2c(C)cccn12
816	O=C(NCC1CC1)C1CCCN(c2nccn3nc(-c4ccccc4Cl)cc23)C1 (centres undefined)
916	Cc1cc(C)cc(NC(=O)Cn2c(=O)c(CCC(=O)NC3CCCC3)nc3ccccc32)c1
658	Cc1cccc(C)c1Nc1c(-c2ccc(O)cc2)nc2ncccn12
764	COCCNS(=O)(=O)c1ccc(-c2c(C)noc2C)cc1
800	Cc1ccc(C(=O)N2C[C@@H](F)C[C@H]2C(=O)N2CCc3ccccc3C2)s1
822	O=C(c1ccccc1F)N1CCC(C(=O)N2CCc3ccccc32)CC1
679	CC(C)NC(=O)C1CCN(C(=O)c2ncn3c2COC(c2ccc(Cl)cc2)C3)CC1 (centres undefined)
807	CCCc1cc(C2CCCN2C(=O)Nc2ccc(C(=O)OC)cc2)no1 (centres undefined)
960	CC(C)(C)C(=O)Nc1cnc(-c2ccc(F)cc2)nc1
847	Cn1cc(-c2cc3n(n2)CCC(=O)N3CCCC(=O)NC2CCCCC2)c2ccccc21
711	Cc1noc(C)c1CCNC(=O)C1CCN(C(=O)c2ncn3c2COC(c2ccc(F)cc2)C3)CC1 (centres undefined)
1050	O=C(Cc1ccc(Cl)cc1)N1CCCn2nc(-c3ccc(Cl)cc3)cc2C1
584	Cc1cnc(C(=O)N2CCCC(c3nnc4n3CCN(C(=O)C3CC3)C4)C2)cn1 (centres undefined)
948	O=C(CN1C(=O)C(C(=O)N2CCCC2)Sc2ccccc21)NCc1ccc(Cl)cc1 (centres undefined)
721	O=C(NC1CCN(c2cc(-c3ccc(Cl)cc3)[nH]n2)C1)c1cccc(F)c1 (centres undefined)
652	CCN1C(=O)COc2cc(-c3noc(C(=O)N4CCN(C5CCCCC5)CC4)n3)ccc21
733	O=C(Cc1ccccc1Cl)N1CCN(S(=O)(=O)C2CC2)CC1
660	CC1CCN(CC2CCCN(C(=O)C3(c4ccccc4)CC3)CC2)CC1 (centres undefined)
845	CCc1ccccc1NC(=O)N1CCCC1c1cc(C)no1 (centres undefined)
581	CC(=O)N(C)Cc1nc2ccccc2n1CC(=O)N1CCCC1
678	COc1ccccc1NC(=O)NCC(c1cccnc1)c1cn(C)c2ccccc12 (centres undefined)
561	Cc1nc2c(c(N(C)CC(=O)N3CCCC3)n1)CCC2

The next lines start with the compound.

SMILES	RP-LC retention time [s]
COc1ccc(N2CCN(S(=O)(=O)c3cc(-c4nc(C(C)C)cs4)sc3C)CC2)cc1	1340
COc1cc(OC)cc(C(=O)Nc2nc(-c3ccc4c(c3)NC(=O)C(C)O4)c(C)s2)c1 (centres undefined)	962
CCC(C)NC(=O)Cn1c(=O)cc(-c2nc(C(C)C)no2)c2ccccc21 (centres undefined)	707
Cn1cccc1C(=O)C(=O)NCCc1ccc(Cl)cc1	939
Cc1cc2n(n1)CCC(=O)N2CCCC(=O)NC1CCCCC1	661
CCOC(=O)c1cn(CC(=O)NC2CCCC2)c2nc(C)ccc2c1=O	686
O=C(NC1CC1)[C@@H]1C[C@H](Oc2cccnc2)CN1C(=O)C1CCC1	557
COc1ccc2c(c1)sc1ncc(C(=O)N3CCN(c4ccccn4)CC3)c(=O)n12	589
CCCc1nc(-n2cccc2)sc1C(=O)Nc1ccc(OC)cc1F	1150
CCNC(=O)c1nc(-c2ccncc2)cs1	574
CCOC(=O)c1cc2n(n1)CC(C)(C(=O)NCc1ccc(C)cc1)N(C1CC1)C2=O (centres undefined)	786
CC(C)c1nnc(-c2coc(S(=O)(=O)N3CCN(c4ccccn4)CC3)c2)o1	657
Cc1ccc(CNC(=O)C2CCCCC(=O)N2)o1 (centres undefined)	636
CCc1ccc(C(=O)N2CCC3(C2)C(=O)Nc2ccc(OC)cc23)cc1 (centres undefined)	786
CN(C(=O)C1CCN(S(=O)(=O)c2ccc3c(c2)sc(=O)n3C)CC1)C1CCCCC1	910
Cc1ccc(CN2CCN(C3CCN(S(=O)(=O)c4ccc(F)c(F)c4)CC3)C(=O)C2=O)cc1	880
Cc1ccc(S(=O)(=O)Nc2cccc(-c3cn4ccccc4n3)c2)cc1C	648
CCN(CC)c1ccc(NC(=O)CSc2cc(N3CCCC3)ncn2)c(C)c1	600
COc1ccc(CN2CC3(CCN(S(=O)(=O)c4ccc(F)cc4)CC3)C2=O)cc1	904

SMILES	RP-LC retention time [s]
CCCCn1nc2ccc(S(=O)(=O)N3CCCCCC3)cn2c1=O	957
Cc1cccc(N2CCN(S(=O)(=O)c3ccc(-c4c(C)noc4C)cc3)CC2)c1C	1230
Cc1ccc(C)c2sc(N(C)CC(=O)Nc3ccc(S(C)(=O)=O)cc3)nc12	892
CCOc1ccc(OCC)c(S(=O)(=O)N2CCN(c3nc(C)cc(N(C)C)n3)CC2)c1	733
CCOc1ccc(-c2cn3ccn(-c4cc(Cl)ccc4C)c(=O)c3n2)cc1	934
O=c1n(Cc2ccccc2)nc2c(-c3nc(-c4ccccc4)no3)cccn12	984
COc1cc(OC)cc(-c2nc(-c3ccc(-n4ccnc4)nc3)no2)c1	769
COc1ccc(OC)c(NS(=O)(=O)c2c(C)nn(-c3ccc(-c4ccc(C)cc4)nn3)c2C)c1	1110
CCCn1cc(S(=O)(=O)Nc2ccc(Cl)cc2)c2cccnc21	942
CC1Oc2ccccc2N(Cc2nc(-c3ccc(F)c(Cl)c3)no2)C1=O (centres undefined)	1190
CCN1c2ccc(C)cc2C(=O)NC12CCN(C(=O)c1cc(F)cc(F)c1)CC2	858
COc1ccc(NC(=O)c2nc(C)oc2C)cc1F	843
CC(C)c1ccc(NC(=O)Cn2nc3n(c2=O)CCCCC3)cc1	779
O=C(c1ccco1)N1CCc2c([nH]c3ccccc23)C1c1ccc(F)cc1 (centres undefined)	1080
COc1ccc(CC(=O)N2CCN(c3cc(C)n4cnnc4n3)CC2)cc1OC	578
COc1ccc(S(=O)(=O)N2CCC(OCCOCc3ccccc3)CC2)cc1	1050
C[C@H]1CCC/C=C/[C@@H]2C[C@H](O)C[C@H]2[C@H](O)/C=C/C(=O)O1	782
Cn1cc(-c2ccccc2)cc1C(=O)N1CCOCC1	804
O=C(NCC1CCCO1)c1ccc(Nc2c(-c3ccccc3)nc3cnccn23)cc1 (centres undefined)	1140
